{"source": "paper PMC11167047", "about": "(Cell Death Discovery, 2024)", "experiment_in_all_cases": "kinome screen (33PanQinase)", "format_in_all_cases": "biochemical", "key": {"AKT1": {"biological_target": "T1, AKT1 (Homo sapiens, UniProt P31749)", "T1 construct": "purchased Reaction Biology Europe GmbH (formerly ProQinase)", "T1 sequence (P31749 whole entry)": "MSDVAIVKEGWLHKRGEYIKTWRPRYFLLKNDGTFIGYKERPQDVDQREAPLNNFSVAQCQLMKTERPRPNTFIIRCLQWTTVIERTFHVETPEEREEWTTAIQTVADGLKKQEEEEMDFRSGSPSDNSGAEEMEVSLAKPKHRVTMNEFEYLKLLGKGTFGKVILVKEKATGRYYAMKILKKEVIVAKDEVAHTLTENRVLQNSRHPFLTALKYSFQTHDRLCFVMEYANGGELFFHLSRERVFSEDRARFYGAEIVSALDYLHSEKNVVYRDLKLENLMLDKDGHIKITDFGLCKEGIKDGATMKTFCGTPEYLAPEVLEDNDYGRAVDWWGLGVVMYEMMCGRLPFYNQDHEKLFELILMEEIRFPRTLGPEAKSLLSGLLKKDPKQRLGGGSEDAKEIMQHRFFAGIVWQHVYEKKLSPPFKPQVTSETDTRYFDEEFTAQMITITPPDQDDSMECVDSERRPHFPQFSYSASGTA", "experimental": "(§1) The Kinome Screening was performed by Reaction Biology Europe GmbH (http://reactionbiology.com; Freiburg i. Br., Germany)."}, "CDK12/CycK": {"biological_target": "T2, CDK12/CycK (Homo sapiens, UniProt Q9NYV4)", "T2 construct": "purchased Reaction Biology Europe GmbH (formerly ProQinase)", "T2 sequence (Q9NYV4 whole entry)": "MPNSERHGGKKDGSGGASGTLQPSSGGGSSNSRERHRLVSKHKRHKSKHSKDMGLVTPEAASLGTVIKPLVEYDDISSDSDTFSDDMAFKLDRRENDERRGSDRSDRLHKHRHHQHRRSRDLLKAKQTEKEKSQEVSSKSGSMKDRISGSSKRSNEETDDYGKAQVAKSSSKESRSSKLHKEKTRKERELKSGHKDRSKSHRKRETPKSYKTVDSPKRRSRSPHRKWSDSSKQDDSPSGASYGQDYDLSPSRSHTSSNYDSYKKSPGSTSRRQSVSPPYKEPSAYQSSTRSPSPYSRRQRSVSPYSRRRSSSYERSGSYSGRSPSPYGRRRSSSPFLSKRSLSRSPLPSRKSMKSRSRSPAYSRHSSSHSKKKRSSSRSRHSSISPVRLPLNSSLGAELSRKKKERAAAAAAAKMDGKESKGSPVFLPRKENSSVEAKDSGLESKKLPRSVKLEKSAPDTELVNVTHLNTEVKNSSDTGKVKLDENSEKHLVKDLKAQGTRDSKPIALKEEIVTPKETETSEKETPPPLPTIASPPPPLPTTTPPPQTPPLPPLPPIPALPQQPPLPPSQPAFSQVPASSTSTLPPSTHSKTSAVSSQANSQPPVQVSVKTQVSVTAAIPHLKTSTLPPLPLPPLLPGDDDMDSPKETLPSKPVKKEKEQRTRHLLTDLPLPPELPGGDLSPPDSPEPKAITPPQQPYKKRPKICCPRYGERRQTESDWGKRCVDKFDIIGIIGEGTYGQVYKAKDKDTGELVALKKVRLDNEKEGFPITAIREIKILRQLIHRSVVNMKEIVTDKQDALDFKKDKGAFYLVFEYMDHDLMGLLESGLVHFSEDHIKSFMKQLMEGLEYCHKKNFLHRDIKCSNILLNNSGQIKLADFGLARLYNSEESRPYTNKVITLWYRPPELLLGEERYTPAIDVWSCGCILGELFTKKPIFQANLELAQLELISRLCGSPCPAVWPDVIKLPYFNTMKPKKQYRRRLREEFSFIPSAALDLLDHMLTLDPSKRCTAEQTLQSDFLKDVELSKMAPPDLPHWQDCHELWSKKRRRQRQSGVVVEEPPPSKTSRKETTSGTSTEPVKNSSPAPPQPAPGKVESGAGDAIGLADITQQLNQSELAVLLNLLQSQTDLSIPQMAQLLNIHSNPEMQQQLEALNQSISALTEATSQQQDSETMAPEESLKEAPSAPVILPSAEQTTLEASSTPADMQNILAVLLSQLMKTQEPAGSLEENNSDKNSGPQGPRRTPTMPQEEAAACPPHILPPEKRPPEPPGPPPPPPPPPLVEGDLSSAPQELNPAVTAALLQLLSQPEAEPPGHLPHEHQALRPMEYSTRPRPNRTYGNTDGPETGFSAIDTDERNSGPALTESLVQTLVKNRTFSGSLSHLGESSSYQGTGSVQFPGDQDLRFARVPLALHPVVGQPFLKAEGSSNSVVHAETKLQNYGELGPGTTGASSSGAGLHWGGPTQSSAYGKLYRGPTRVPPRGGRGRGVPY", "T2 sequence (O75909 whole entry partner)": "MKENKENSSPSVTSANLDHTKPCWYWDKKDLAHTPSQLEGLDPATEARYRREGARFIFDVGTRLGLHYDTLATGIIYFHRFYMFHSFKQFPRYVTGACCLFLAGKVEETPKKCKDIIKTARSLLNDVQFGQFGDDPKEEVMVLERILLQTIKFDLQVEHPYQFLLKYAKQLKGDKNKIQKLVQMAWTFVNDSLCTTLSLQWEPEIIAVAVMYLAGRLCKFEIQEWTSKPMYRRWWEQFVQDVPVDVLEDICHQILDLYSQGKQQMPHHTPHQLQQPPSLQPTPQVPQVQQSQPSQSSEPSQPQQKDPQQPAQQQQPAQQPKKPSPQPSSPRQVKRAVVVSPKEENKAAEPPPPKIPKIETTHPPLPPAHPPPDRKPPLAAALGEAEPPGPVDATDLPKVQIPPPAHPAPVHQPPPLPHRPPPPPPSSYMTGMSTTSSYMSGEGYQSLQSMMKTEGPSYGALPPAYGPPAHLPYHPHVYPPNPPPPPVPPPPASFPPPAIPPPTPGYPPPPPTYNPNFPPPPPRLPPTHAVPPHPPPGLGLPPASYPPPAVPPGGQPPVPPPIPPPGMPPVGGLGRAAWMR", "experimental": "as §1"}, "CLK3": {"biological_target": "T3, CLK3 (Homo sapiens, UniProt P49761)", "T3 construct": "purchased Reaction Biology Europe GmbH (formerly ProQinase)", "T3 sequence (P49761 whole entry)": "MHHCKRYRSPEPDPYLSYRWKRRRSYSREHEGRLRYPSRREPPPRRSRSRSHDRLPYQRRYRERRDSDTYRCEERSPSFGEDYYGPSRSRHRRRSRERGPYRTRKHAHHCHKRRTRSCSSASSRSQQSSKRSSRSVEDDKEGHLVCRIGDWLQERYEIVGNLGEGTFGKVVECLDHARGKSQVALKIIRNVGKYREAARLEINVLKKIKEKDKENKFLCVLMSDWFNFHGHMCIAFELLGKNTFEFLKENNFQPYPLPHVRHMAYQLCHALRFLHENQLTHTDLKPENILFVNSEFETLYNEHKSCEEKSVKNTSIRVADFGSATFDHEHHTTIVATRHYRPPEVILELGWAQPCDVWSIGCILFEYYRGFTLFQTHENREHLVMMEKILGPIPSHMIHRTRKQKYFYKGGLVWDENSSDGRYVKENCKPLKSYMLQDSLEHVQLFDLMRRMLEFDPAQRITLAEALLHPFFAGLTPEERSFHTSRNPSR", "experimental": "as §1"}, "FGFR1": {"biological_target": "T4, FGFR1 (Homo sapiens, UniProt P11362)", "T4 construct": "purchased Reaction Biology Europe GmbH (formerly ProQinase)", "T4 sequence (P11362 22-822)": "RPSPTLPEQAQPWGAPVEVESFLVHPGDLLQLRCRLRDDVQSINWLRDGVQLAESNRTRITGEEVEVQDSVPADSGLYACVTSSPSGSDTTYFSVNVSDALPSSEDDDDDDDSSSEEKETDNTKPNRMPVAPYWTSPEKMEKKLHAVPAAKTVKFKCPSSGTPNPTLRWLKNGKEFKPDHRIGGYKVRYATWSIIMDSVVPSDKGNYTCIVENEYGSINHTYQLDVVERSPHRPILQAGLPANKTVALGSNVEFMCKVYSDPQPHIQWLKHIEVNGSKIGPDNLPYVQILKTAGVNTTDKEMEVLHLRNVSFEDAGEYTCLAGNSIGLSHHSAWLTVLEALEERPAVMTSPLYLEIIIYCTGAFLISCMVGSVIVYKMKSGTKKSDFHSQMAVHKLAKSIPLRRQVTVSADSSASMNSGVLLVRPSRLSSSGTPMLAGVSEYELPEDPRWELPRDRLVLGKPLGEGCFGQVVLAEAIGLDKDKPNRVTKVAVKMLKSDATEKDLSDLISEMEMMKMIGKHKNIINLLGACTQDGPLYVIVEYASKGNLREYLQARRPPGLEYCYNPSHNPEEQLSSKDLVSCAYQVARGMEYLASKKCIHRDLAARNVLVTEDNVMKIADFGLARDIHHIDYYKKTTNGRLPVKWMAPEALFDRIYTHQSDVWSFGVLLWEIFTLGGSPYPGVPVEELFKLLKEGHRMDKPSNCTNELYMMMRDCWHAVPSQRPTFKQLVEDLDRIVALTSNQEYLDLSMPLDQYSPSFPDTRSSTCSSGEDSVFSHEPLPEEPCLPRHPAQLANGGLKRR", "experimental": "as §1"}, "GRK7": {"biological_target": "T5, GRK7 (Homo sapiens, UniProt Q8WTQ7)", "T5 construct": "purchased Reaction Biology Europe GmbH (formerly ProQinase)", "T5 sequence (Q8WTQ7 1-553)": "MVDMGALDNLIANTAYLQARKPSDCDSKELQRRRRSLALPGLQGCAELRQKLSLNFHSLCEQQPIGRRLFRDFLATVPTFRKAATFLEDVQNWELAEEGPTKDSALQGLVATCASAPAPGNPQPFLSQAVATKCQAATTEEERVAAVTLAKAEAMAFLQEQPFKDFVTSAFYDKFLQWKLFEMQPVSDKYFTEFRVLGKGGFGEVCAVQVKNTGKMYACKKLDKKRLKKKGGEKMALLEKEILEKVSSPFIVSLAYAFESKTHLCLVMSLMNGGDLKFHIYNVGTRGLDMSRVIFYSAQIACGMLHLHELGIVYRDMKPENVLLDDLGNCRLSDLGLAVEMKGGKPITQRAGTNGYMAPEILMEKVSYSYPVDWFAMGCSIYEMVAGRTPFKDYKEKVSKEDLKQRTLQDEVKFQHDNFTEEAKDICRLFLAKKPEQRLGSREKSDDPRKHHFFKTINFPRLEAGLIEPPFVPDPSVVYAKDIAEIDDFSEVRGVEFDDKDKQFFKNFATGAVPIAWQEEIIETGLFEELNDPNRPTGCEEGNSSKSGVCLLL", "experimental": "as §1"}, "MAPKAPK3": {"biological_target": "T6, MAPKAPK3 (Homo sapiens, UniProt Q16644)", "T6 construct": "purchased Reaction Biology Europe GmbH (formerly ProQinase)", "T6 sequence (Q16644 whole entry)": "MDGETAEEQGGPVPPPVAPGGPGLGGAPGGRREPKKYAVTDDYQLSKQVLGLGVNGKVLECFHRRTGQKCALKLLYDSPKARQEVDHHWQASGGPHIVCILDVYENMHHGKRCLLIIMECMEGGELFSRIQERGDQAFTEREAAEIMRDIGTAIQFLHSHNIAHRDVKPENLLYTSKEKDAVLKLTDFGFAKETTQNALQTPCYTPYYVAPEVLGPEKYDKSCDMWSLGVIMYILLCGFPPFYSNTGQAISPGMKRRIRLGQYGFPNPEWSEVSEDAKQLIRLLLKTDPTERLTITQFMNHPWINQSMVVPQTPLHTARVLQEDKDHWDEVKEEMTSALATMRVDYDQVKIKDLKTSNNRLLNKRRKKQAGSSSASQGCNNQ", "experimental": "as §1"}, "MASTL": {"biological_target": "T7, MASTL (Homo sapiens, UniProt Q96GX5)", "T7 construct": "purchased Reaction Biology Europe GmbH (formerly ProQinase)", "T7 sequence (Q96GX5 1-879)": "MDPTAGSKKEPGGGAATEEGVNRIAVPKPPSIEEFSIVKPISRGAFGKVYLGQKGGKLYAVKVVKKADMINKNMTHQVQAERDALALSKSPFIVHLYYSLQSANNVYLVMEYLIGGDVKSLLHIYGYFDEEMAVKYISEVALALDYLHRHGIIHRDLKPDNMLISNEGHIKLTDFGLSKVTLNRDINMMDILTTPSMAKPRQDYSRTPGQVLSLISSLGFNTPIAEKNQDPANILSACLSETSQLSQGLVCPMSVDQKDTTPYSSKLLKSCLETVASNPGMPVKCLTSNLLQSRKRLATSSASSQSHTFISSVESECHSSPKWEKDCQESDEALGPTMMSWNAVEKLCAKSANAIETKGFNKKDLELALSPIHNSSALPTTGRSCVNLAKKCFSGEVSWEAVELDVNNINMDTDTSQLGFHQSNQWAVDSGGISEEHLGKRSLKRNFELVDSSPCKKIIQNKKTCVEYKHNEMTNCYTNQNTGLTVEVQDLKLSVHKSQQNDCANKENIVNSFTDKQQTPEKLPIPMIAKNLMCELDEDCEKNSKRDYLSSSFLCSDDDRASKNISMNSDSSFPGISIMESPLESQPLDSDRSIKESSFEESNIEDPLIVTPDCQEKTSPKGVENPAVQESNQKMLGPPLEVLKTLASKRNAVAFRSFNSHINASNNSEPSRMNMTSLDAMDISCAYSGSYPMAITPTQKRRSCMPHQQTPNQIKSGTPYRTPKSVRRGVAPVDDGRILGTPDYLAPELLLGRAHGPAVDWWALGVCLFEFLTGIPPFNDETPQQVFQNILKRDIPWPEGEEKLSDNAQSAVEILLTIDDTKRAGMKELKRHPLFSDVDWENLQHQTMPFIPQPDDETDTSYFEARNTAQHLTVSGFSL", "experimental": "as §1"}, "MYLK3": {"biological_target": "T8, MYLK3 (Homo sapiens, UniProt Q32MK0)", "T8 construct": "purchased Reaction Biology Europe GmbH (formerly ProQinase)", "T8 sequence (Q32MK0 1-819)": "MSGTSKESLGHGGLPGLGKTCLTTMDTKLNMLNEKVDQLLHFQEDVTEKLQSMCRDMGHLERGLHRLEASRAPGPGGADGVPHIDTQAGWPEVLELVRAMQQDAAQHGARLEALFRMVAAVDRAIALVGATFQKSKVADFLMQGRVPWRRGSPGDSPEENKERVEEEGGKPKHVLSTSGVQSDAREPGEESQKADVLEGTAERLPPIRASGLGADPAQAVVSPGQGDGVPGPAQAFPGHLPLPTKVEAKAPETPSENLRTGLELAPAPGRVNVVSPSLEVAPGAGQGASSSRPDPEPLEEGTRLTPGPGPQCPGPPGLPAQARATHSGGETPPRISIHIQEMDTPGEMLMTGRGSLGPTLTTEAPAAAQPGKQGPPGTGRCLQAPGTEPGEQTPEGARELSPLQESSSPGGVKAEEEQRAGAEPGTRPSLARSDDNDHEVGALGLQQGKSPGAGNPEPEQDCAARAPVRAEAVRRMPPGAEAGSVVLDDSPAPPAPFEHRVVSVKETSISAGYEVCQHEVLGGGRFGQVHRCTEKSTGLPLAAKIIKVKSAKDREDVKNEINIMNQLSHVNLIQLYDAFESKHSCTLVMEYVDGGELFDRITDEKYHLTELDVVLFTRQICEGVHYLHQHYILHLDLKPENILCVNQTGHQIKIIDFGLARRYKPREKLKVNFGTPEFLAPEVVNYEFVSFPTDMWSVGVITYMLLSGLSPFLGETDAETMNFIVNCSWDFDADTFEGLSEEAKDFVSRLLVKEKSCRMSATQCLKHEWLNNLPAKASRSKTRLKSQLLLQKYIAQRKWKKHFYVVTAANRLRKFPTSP", "experimental": "as §1"}, "NEK7": {"biological_target": "T9, NEK7 (Homo sapiens, UniProt Q8TDX7)", "T9 construct": "purchased Reaction Biology Europe GmbH (formerly ProQinase)", "T9 sequence (Q8TDX7 whole entry)": "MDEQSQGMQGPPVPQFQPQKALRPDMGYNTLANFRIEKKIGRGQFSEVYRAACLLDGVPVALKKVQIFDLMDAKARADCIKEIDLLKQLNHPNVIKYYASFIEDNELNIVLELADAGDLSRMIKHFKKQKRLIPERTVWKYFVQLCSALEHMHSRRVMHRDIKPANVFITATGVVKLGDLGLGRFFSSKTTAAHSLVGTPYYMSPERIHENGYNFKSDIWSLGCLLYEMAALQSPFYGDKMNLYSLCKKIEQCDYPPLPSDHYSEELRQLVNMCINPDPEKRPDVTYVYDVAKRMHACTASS", "experimental": "as §1"}}, "data": [{"smiles": "c1ccc(CNc2cc(-c3c[nH]c4ncccc34)ccn2)cc1", "note": "[meriolin 36]", "values": [{"measurement": "residual kinase activity", "setting": "AKT1; 0.3 µM", "result": "89 % of control"}, {"measurement": "residual kinase activity", "setting": "AKT1; 3 µM", "result": "41 % of control"}, {"measurement": "residual kinase activity", "setting": "CDK12/CycK; 0.3 µM", "result": "1 % of control"}, {"measurement": "residual kinase activity", "setting": "CDK12/CycK; 3 µM", "result": "2 % of control"}, {"measurement": "residual kinase activity", "setting": "CLK3; 0.3 µM", "result": "13 % of control"}, {"measurement": "residual kinase activity", "setting": "CLK3; 3 µM", "result": "1 % of control"}, {"measurement": "residual kinase activity", "setting": "FGFR1; 0.3 µM", "result": "56 % of control"}, {"measurement": "residual kinase activity", "setting": "FGFR1; 3 µM", "result": "16 % of control"}, {"measurement": "residual kinase activity", "setting": "GRK7; 0.3 µM", "result": "94 % of control"}, {"measurement": "residual kinase activity", "setting": "GRK7; 3 µM", "result": "48 % of control"}, {"measurement": "residual kinase activity", "setting": "MAPKAPK3; 3 µM", "result": "90 % of control"}, {"measurement": "residual kinase activity", "setting": "MASTL; 0.3 µM", "result": "64 % of control"}, {"measurement": "residual kinase activity", "setting": "MASTL; 3 µM", "result": "26 % of control"}, {"measurement": "residual kinase activity", "setting": "MYLK3; 0.3 µM", "result": "71 % of control"}, {"measurement": "residual kinase activity", "setting": "MYLK3; 3 µM", "result": "21 % of control"}, {"measurement": "residual kinase activity", "setting": "NEK7; 0.3 µM", "result": "103 % of control"}, {"measurement": "residual kinase activity", "setting": "NEK7; 3 µM", "result": "107 % of control"}]}, {"smiles": "COc1ccnc2[nH]cc(-c3cc(N)nc(N)c3)c12", "note": "[meriolin 16]", "values": [{"measurement": "residual kinase activity", "setting": "AKT1; 0.03 µM", "result": "96 % of control"}, {"measurement": "residual kinase activity", "setting": "AKT1; 0.3 µM", "result": "70 % of control"}, {"measurement": "residual kinase activity", "setting": "CDK12/CycK; 0.03 µM", "result": "21 % of control"}, {"measurement": "residual kinase activity", "setting": "CDK12/CycK; 0.3 µM", "result": "1 % of control"}, {"measurement": "residual kinase activity", "setting": "CLK3; 0.03 µM", "result": "94 % of control"}, {"measurement": "residual kinase activity", "setting": "CLK3; 0.3 µM", "result": "36 % of control"}, {"measurement": "residual kinase activity", "setting": "FGFR1; 0.03 µM", "result": "103 % of control"}, {"measurement": "residual kinase activity", "setting": "FGFR1; 0.3 µM", "result": "91 % of control"}, {"measurement": "residual kinase activity", "setting": "GRK7; 0.03 µM", "result": "105 % of control"}, {"measurement": "residual kinase activity", "setting": "GRK7; 0.3 µM", "result": "78 % of control"}, {"measurement": "residual kinase activity", "setting": "MAPKAPK3; 0.03 µM", "result": "99 % of control"}, {"measurement": "residual kinase activity", "setting": "MAPKAPK3; 0.3 µM", "result": "87 % of control"}, {"measurement": "residual kinase activity", "setting": "MASTL; 0.03 µM", "result": "87 % of control"}, {"measurement": "residual kinase activity", "setting": "MASTL; 0.3 µM", "result": "56 % of control"}, {"measurement": "residual kinase activity", "setting": "MYLK3; 0.03 µM", "result": "119 % of control"}, {"measurement": "residual kinase activity", "setting": "MYLK3; 0.3 µM", "result": "77 % of control"}, {"measurement": "residual kinase activity", "setting": "NEK7; 0.03 µM", "result": "111 % of control"}, {"measurement": "residual kinase activity", "setting": "NEK7; 0.3 µM", "result": "96 % of control"}]}]}
